According to publication PMC8291587, “Guanidine Derivatives: How Simple Structural Modification of Histamine H3R Antagonists Has Led to the Discovery of Potent Muscarinic M2R/M4R Antagonists” (ACS Chemical Neuroscience, 2021):
Like-named read-outs stand apart in the source and are kept apart here.

Experiments:
[1] = target: T1, hM4R (Homo sapiens, UniProt P08173); assay: hM4R radioligand binding ([3H]NMS, CHO cell membranes)
T1 construct: host or cells: CHO cells, stably transfected; crude membranes
T1 sequence (P08173 1-479): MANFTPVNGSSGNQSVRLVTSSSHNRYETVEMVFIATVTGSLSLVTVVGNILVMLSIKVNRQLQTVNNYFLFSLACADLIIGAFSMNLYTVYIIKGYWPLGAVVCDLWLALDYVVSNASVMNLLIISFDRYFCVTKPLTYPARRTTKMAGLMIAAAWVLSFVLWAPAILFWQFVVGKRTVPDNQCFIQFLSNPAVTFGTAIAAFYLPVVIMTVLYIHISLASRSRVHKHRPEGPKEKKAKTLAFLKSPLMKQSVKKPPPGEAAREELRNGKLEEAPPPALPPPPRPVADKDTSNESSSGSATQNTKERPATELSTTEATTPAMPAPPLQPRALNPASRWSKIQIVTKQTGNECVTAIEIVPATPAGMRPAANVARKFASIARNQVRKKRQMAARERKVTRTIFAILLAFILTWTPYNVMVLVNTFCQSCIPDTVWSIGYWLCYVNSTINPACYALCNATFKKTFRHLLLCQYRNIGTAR
Protocol: To clearly explain the obtained outcome, we engaged the radioligand binding experiment. The hM1–hM5 radioligand binding experiments were performed in the membrane fractions of Chinese hamster ovary cells (CHO) stably expressing human variants of muscarinic receptors. N-[^3H]Methylscopolamine was used as the radiolabeled ligand.[39] Three compounds were selected from ex vivo screening on guinea pig ileum. […] This compound is also not completely selective for the remaining muscarinic receptor subtypes with −log Ki values over 6. […] It is also a potent muscarinic M1R antagonist, and the M1R/M2R selectivity ratio is <10. It is worth noting that such nonspecific anticholinergics are often associated with neuropsychiatric and cognitive disturbances and that nonselective muscarinic M1R/M2R antagonists, such as scopolamine, can produce cognitive deficits. Further structural modifications of ADS10227 should be used to increase selectivity toward the M2R, as these may present fewer potential side effects associated with the activation of the phospholipase C signaling pathway.
The culture was derived from CHO cells stably transfected with the genes of human variants of muscarinic receptors. These were purchased from Missouri S&T cDNA Resource Center (Rolla, MO, USA). Cell cultures and crude membranes were prepared as described previously.[45] […]
All radioligand binding experiments were optimized and carried out according to general guidelines.[39] […] N-Methylscopolamine binding was measured directly in saturation experiments using six concentrations (30–1000 pM) of [^3H]NMS during incubation for 1 h (M2R), 3 h (M1R, M3R, and M4R), or 5 h (M5R). For calculations of the equilibrium dissociation constant (KD), concentrations of free [^3H]NMS were calculated by subtraction of bound radioactivity from total radioactivity in the sample and fitting eq 1 (Experimental Data analysis section). The binding of the tested ligands was determined in competition experiments with 100 pM [^3H]NMS. […] Nonspecific binding was determined in the presence of 1 μM unlabeled atropine. […]

[2] = target: T2, H1R (Cavia porcellus, UniProt P31389); assay: Ex vivo screening of histamine H1R antagonists on guinea pig ileum, variant with 0.05 μM atropine; conditions: isolated guinea pig ileum, histamine as agonist
T2 construct: from tissue; host or cells: isolated distal ileum of male guinea pigs
Protocol: The second histamine receptor located in the guinea pig ileum is H1R. […] The H1R antagonistic effect was measured on isolated guinea pig ileum stimulated to contract by histamine.[37] To assess and exclude the influence of the ADS compounds on muscarinic receptors, two test variations were used: one with the addition of 0.05 μM atropine and one without.
Male guinea pigs, weighing 300–400 g, were euthanized by a blow to the neck. A 20–30 cm length of the distal ileum, apart from the terminal 5 cm, was rapidly removed and placed in phosphate buffer at room temperature (pH 7.4) containing (mM) NaCl (136.9), KCl (2.6), KH2PO4 (1.47), Na2HPO4 (9.58), and indomethacin (1 × 10^–6 mol/L). The intraluminal content was rinsed, and the isolated intestine was cut into 1.5–2 cm segments. The preparations were mounted isotonically in a 20 mL organ bath filled with Krebs buffer: composition (mM) NaCl (118), KCl (5.6), MgSO4 (1.18), CaCl2 (2.5), NaH2PO4·H2O (1.28), NaHCO3 (25), glucose (5.55), and indomethacin (3 × 10^–7 mol/L). […] The solution was continuously bubbled with a 95% O2:5% CO2 mixture and maintained at 37 °C under a constant load of 0.5 g (Hugo Sachs Hebel–Messvorsatz (Tl-2)/HF-modem; Hugo Sachs Elektronik, Hugstetten, Germany) connected to a pen recorder (Kipp & Zonen BD41, Delft, Holland). During an equilibration period of 40 min, Krebs buffer was changed every 10 min. The first cumulative concentration–response curve was determined for histamine (10 nM to 10 mM) at increasing concentrations spaced by 3- or 3.3-fold. The second to the fourth (or fifth) curves were measured in the presence of an increasing concentrations of antagonist (incubation time 10 min). The pA2 values were calculated according to Arunlakshana and Schild.[37] Statistical analysis was carried out with the Students’ t test. In all tests, a p < 0.05 was considered statistically significant.

[3] = read-out: H1R+atropine pA2 gpi ± sem (converted)

T2 sequence (P31389 whole entry): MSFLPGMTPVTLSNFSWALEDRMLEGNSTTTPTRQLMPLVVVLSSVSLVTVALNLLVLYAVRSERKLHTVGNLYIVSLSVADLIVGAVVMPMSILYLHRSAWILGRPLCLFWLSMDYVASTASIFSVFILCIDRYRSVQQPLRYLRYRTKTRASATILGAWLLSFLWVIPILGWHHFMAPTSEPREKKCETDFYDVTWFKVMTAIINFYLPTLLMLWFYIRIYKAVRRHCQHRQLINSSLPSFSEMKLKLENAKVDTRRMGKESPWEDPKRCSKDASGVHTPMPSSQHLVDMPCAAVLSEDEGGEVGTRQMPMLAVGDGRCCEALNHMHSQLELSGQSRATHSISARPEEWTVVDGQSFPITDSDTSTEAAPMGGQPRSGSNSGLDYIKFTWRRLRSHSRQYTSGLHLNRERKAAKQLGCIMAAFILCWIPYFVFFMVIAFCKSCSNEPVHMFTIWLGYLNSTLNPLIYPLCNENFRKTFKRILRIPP

Ki ([1]; [3H]NMS, CHO membranes, read-out: hM4R -log(Ki) ± sem (converted)) [nM] | Compound | Ki ([1]; [3H]NMS, CHO membranes, read-out: affinity to hM4R (Ki)) [nM] | Kb [2, 3] [nM] | Ki [1] [nM] | Kb ([2]; H1R+atropine pA2 gpi ± sem) [nM]
– | N=C(N)N(CCCCN1CCN(C[C@H]2CC[C@@H](COc3ccccc3)CC2)CC1)Cc1ccccc1 [ADS10227, 1-{4-{4-{[4-(phenoxymethyl)cyclohexyl]methyl}piperazin-1-yl}but-1-yl}-1-(benzyl)guanidine] | 5.1 | 257 | – | –
– | N=C(N)N(CCCCN1CCN(CCCCCCCOc2ccccc2)CC1)Cc1ccccc1 [ADS1017] | – | – | 68 | 251
15.1 | [H]/N=C(/N)N(CCCCN1CCN(CC2CCC(COc3ccccc3)CC2)CC1)Cc1ccc(C(F)(F)F)cc1 (stereo not drawn) [ADS10239] | – | 151 | – | –
